The target of one data set is T1, RXFP1 (Homo sapiens, UniProt Q9HBX9).
T1 construct: expressed in transfected cells
T1 sequence (Q9HBX9 1-757): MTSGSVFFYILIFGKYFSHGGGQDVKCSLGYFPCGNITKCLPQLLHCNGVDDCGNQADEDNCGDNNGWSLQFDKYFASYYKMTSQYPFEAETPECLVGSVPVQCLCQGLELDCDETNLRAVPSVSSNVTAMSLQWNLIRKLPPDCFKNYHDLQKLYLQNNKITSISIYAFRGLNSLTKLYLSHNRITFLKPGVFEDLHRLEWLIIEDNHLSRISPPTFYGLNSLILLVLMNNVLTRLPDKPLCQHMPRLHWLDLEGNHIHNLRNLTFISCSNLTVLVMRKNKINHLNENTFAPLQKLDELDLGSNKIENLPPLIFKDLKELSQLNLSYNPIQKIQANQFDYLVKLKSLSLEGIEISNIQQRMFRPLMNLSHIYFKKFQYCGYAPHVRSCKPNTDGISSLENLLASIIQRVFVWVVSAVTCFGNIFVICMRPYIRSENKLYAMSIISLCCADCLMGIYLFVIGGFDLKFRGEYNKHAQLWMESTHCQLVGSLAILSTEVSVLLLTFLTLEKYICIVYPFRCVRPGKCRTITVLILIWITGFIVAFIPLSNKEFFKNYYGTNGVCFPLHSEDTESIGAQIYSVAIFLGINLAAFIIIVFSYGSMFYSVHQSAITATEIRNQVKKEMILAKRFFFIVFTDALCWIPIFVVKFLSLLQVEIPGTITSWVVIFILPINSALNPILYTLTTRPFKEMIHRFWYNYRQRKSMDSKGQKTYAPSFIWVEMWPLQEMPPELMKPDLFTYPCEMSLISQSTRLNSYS
The experiment in a line: HTRF cAMP counter-screen in HEK-RXFP1 cells. The data set is classed as cell-based. To be noted: compound 10 μM-[…], IBMX 200 μM. From the text:
HEK293T cells stably transfected with RXFP1 (HEK-RXFP1) were used to test compound specificity towards the RXFP2 receptor using the HTRF Gs dynamic cAMP assay kit (PerkinElmer, Waltham, MA). This is a competitive immunoassay where a time-resolved fluorescence resonance energy (TR-FRET) signal is produced when exogenous d2-labeled cAMP (acceptor) binds to europium cryptate-conjugated anti-cAMP antibody (donor). No signal is produced when endogenous cAMP binds to the antibody. Thus, the TR-FRET signal is inversely proportional to the concentration of cAMP produced by the cells. The HTRF cAMP assay was carried out in the presence of isobutylmethylxanthine phosphodiesterase inhibitor (IBMX) at 200 μM to amplify the cAMP signal. For this assay, cells were seeded in 96-well flat-bottom opaque plates at 30,000 cells/well in 60 μL/well of serum-free DMEM medium and allowed to attach overnight at 37° C., 5% CO2. The next morning, cells were treated with 1 μL/well of compound (10 μM-1.2 nM), 1 μM forskolin, or DMSO vehicle. Cells were also treated with 4 μL of 10 nM Relaxin2 (Peprotech, Cranbury, NJ) as a positive control or vehicle (serum-free DMEM+IBMX). […] Cells were incubated for 1 hour at room temperature, and then the signal was read on a CLARIOstar plate reader (BMG Labtech, Germany). […]
For orientation: In TR-FRET formats the signal depends on donor and acceptor labels being close together.

For data set [1], the system named is primary human calvarial osteoblasts (HCO). The experiment in a line: CellTiter-Glo cytotoxicity assay in HCO cells. As to conditions: 24 h. It is filed as cell-based. As for the experimental part:
Cytotoxicity induced by the compounds in HEK293T cells and primary human calvarial osteoblasts (HCO) (ScienCell Research Laboratories, San Diego, CA) were tested using the […]-GLO™ Luminescent Cell Viability Assay (Promega, Madison, WI). This is a luminescence-based assay that determines viable cells by measuring cellular adenosine triphosphate (ATP) production. The luciferase enzyme requires ATP to catalyze the conversion of beetle luciferin to oxyluciferin and light. Thus, luciferase activity is proportional to ATP accumulation in the cells. For this assay, 96-well flat-bottom opaque plates seeded with HEK293T cells at 5,000 cells/well and HCO cells at 3,000 cells/well in 100 μL/well of growth medium (DMEM, 10% FBS, 1× Penicillin/Streptomycin). After incubating overnight at 37° C., 5% CO2 to allow attachment, cells were treated with 1 μL/well of compound (25-0.1 μM) or DMSO vehicle and incubated an additional 24 hours. Then cells were equilibrated for 30 minutes at room temperature and 100 μL/well of […]-GLO™ Reagent was added. Plates were placed on an orbital shaker for 2 minutes and incubated at room temperature for 10 minutes to stabilize the luminescent signal, which was read immediately after on a CLARIOstar plate reader (BMG Labtech, Germany). […] The HEK293T results represent the means±SEM of 3 technical replicates. The HCO results represent the means±SEM of 3 independent experiments.
A general note: In ATP-based viability assays light output follows the ATP content of the culture.

In data set [2] the test system is gubernaculum of female embryos. The data set is described as follows: Gubernaculum development in female embryos of treated pregnant mice. The data set is classed as in vivo, C57BL/6J mice. As to conditions: 30 mg/kg intraperitoneal to pregnant females, embryonic day 12.5 to 17.5. From the text: The role of INSL3 and RXFP2 in gubernaculum development for the initial transabdominal descent of the testis during embryogenesis has been widely characterized in Insl3^-/- and Rxfp2^-/- mouse models of cryptorchidism. […] The gubernaculum is composed of the gubernacular bulb and cord, and it has begun invagination into the abdominal wall in preparation for the inguinoscrotal stage of testicular descent, which will finalize after birth. […] The hypothesis for our experiment is that by injecting pregnant females with the RXFP2 agonists during this embryonic development window, gubemaculum development could be induced in female embryos, which has been previously shown in female embryos overexpressing INSL3. […] For this assay, whole embryos were fixed in 10% formaldehyde for 24 hours. Afterwards, embryos were washed twice with PBS for 1 hour, followed by 3 consecutive washes with increasing concentrations of ethanol (30%, 50% and 70%) for 30 minutes. Fixed embryos were prepared for histology using an automatic tissue processor (Leica TP1020, Leica Biosystems, Germany), embedded in paraffin wax, and 5-7 μm sagittal serial sections were cut using an automated rotary microtome (Leica RM2255, Leica Biosystems, Germany). […] At least 4 embryos were analyzed per treatment group.

[3] abbreviates: lower concentrations than 25 μM.

Consider `O=C1Nc2ccc(-c3cccc(C(F)(F)F)c3)cc2C(=O)N2CCN(C(=O)COc3ccc(OC(F)(F)F)cc3Br)C[C@@H]12` [Example 123, (S)-2-(2-(2-bromo-4-(trifluoromethoxy)phenoxy)acetyl)-8-(3-(trifluoromethyl)phenyl)-1,3,4,12a-tetrahydrobenzo[e]pyrazino[1,2-a][1,4]diazepine-6,12 (2H, 11H)-dione], for which the “RXFP1 cAMP response (activation of RXFP1)” value at RXFP1 is reported as “do not activate”.
Turning to `O=C1Nc2ccc(-c3cc(C(F)(F)F)cc(C(F)(F)F)c3)cc2C(=O)N2CCN(C(=O)COc3ccc(OC(F)(F)F)cc3Br)C[C@@H]12` [Example 158, (S)-8-(3,5-Bis(trifluoromethyl)phenyl)-2-(2-(2-bromo-4-(trifluoromethoxy)phenoxy)acetyl)-1,3,4,12a-tetrahydrobenzo[e]pyrazino[1,2-a][1,4]diazepine-6,12 (2H, 11H)-dione], the “RXFP1 cAMP response (activation of RXFP1)” value at RXFP1 is on record as “do not activate”. Further, the cytotoxicity entry is “minimal toxicity” in data set [1] (25 μM) and “not toxic” in data set [1] (setting [3]). In addition, the “gubernaculum morphology in embryonic day 18.5 female embryos” value in data set [2] was “male-like invagination of the gubemaculum”.
As to `O=C1Nc2ccc(-c3cc(C(F)(F)F)cc(C(F)(F)F)c3)cc2C(=O)N2CCN(C(=O)COc3ccc(OC(F)(F)F)cc3I)C[C@@H]12` [Example 187, (S)-8-(3,5-bis(trifluoromethyl)phenyl)-2-(2-(2-iodo-4-(trifluoromethoxy)phenoxy)acetyl)-1,3,4,12a-tetrahydrobenzo[e]pyrazino[1,2-a][1,4]diazepine-6,12 (2H, 11H)-dione], the cytotoxicity result in data set [1] (25 μM) is “minimal toxicity”; in data set [1] (setting [3]), “not toxic”. Further, the “gubernaculum morphology in embryonic day 18.5 female embryos” value in data set [2] is “male-like invagination of the gubemaculum”.

Values taken from patent US20250134907A1, “FUSED DIAZEPINES AS AGONISTS OF THE INSULIN-LIKE 3 (INSL3) PEPTIDE RECEPTOR RXFP2 AND METHODS OF USE THEREOF” (The United States of America,as represented by the …, priority 2022, published 2025).
